In PubChem BioAssay AID216 (DTP/NCI, 2004):
Where “and” joins values, the source holds several entries; their conditions need not be identical. Identical values can stand only once. Toxic doses and inconclusive results are not listed.

System: BDF1 mice, P288 leukemia ip, survival T/C
Test: NCI In Vivo Anticancer Drug Screen. Data for tumor model P288 Lymphocytic Leukemia (intraperitoneal) in B6D2F1 (BDF1) mice
Details: endpoint: survival time, mean or median, higher = longer survival
Protocol: The antitumor activity of compounds was measured in mice bearing transplantable tumors. Survival or tumor size were measured and the results are expressed as the measurement made in the treated group (T) divided by the measurement made in the vehicle treated control group (C). The tumor model used in this assay is P288 Lymphocytic Leukemia (intraperitoneal) in B6D2F1 (BDF1) mice

[1] = dose: 6.25 mg/kg/injection, schedule: Q01DX010 (ip), vehicle: saline
[2] = dose: 12.5 mg/kg/injection, schedule: Q01DX010 (ip), vehicle: saline
[3] = dose: 25.0 mg/kg/injection, schedule: Q01DX010 (ip), vehicle: saline
[4] = dose: 50.0 mg/kg/injection, schedule: Q01DX010 (ip), vehicle: saline
[5] = dose: 12.5 mg/kg/injection, schedule: Q01DX Z (ip), vehicle: carboxymethylcellulose (CMC)
[6] = dose: 25.0 mg/kg/injection, schedule: Q01DX Z (ip), vehicle: carboxymethylcellulose (CMC)
[7] = dose: 50.0 mg/kg/injection, schedule: Q01DX Z (ip), vehicle: carboxymethylcellulose (CMC)
[8] = dose: 100.0 mg/kg/injection, schedule: Q01DX Z (ip), vehicle: carboxymethylcellulose (CMC)

[I][Hg][CH2]C1COC([CH2][Hg][I])CO1 (stereo not drawn)
T/C (dose: 0.95 mg/kg/injection, schedule: Q01DX Z (ip), vehicle: carboxymethylcellulose (CMC)): 97 % of control
T/C (dose: 1.9 mg/kg/injection, schedule: Q01DX Z (ip), vehicle: carboxymethylcellulose (CMC)): 94 % of control
T/C (dose: 3.75 mg/kg/injection, schedule: Q01DX Z (ip), vehicle: carboxymethylcellulose (CMC)): 90 % of control
T/C [1]: 100 % of control
T/C [2]: 100 % of control
T/C (dose: 15.0 mg/kg/injection, schedule: Q01DX Z (ip), vehicle: carboxymethylcellulose (CMC)): 94 % of control
T/C [3]: 100 % of control
T/C [4]: 88 % of control

CCN(CC)C(=S)S
T/C (dose: 125.0 mg/kg/injection, schedule: Q01DX Z (ip), vehicle: other): 97 % of control
T/C (dose: 250.0 mg/kg/injection, schedule: Q01DX Z (ip), vehicle: other): 112 % of control
T/C (dose: 500.0 mg/kg/injection, schedule: Q01DX Z (ip), vehicle: other): 104 % of control
T/C (dose: 1000.0 mg/kg/injection, schedule: Q01DX Z (ip), vehicle: other): 104 % of control

CN(Cc1cnc2nc(N)nc(N)c2n1)c1c(Cl)cc(C(=O)NC(CCC(=O)O)C(=O)O)cc1Cl (stereo not drawn)
T/C [5]: 232 % of control
T/C [6]: 300 % of control
T/C [7]: 320 % of control
T/C [8]: 288 % of control

N#C[C@@H]1C2C=CC(CC2)[C@H]1C#N
T/C (dose: 0.25 mg/kg/injection, schedule: Q01DX010 (ip), vehicle: saline): 89 % of control
T/C (dose: 63.0 micrograms/kg/injection, schedule: Q01DX010 (ip), vehicle: saline): 105 % of control
T/C (dose: 125.0 micrograms/kg/injection, schedule: Q01DX010 (ip), vehicle: saline): 105 % of control
T/C (dose: 500.0 micrograms/kg/injection, schedule: Q01DX010 (ip), vehicle: saline): 111 % of control

CS(=O)(=O)OCCCCOS(C)(=O)=O
T/C [1]: 110 % of control
T/C [2]: 105 % of control and 115 % of control
T/C [3]: 105 % of control and 110 % of control
T/C [4]: 121 % of control and 100 % of control

CSCS(=O)C[C@H](CO)NC(=O)/C=C/c1c(C)[nH]c(=O)[nH]c1=O (stereo partly drawn)
T/C (dose: 0.06 mg/kg/injection, schedule: Q01DX Z (ip), vehicle: saline): 102 % of control
T/C (dose: 0.12 mg/kg/injection, schedule: Q01DX Z (ip), vehicle: saline): 96 % of control
T/C (dose: 0.25 mg/kg/injection, schedule: Q01DX Z (ip), vehicle: saline): 107 % of control and 96 % of control
T/C (dose: 0.5 mg/kg/injection, schedule: Q01DX Z (ip), vehicle: saline): 90 % of control and 96 % of control
T/C (dose: 1.0 mg/kg/injection, schedule: Q01DX Z (ip), vehicle: saline): 97 % of control

Nc1nc2n[nH]nc2c(=O)[nH]1
T/C (dose: 12.5 mg/kg/injection, schedule: Q01DX Z (ip), vehicle: other): 111 % of control
T/C (dose: 25.0 mg/kg/injection, schedule: Q01DX010 (ip), vehicle: alkali diluted with saline): 100 % of control
T/C (dose: 100.0 mg/kg/injection, schedule: Q01DX Z (ip), vehicle: other): 152 % of control and 183 % of control
T/C (dose: 200.0 mg/kg/injection, schedule: Q01DX Z (ip), vehicle: other): 195 % of control

c1ccc(CCSc2ncnc3nc[nH]c23)cc1
T/C (dose: 62.5 mg/kg/injection, schedule: Q01DX010 (ip), vehicle: saline): 100 % of control
T/C (dose: 125.0 mg/kg/injection, schedule: Q01DX010 (ip), vehicle: saline): 100 % of control
T/C (dose: 250.0 mg/kg/injection, schedule: Q01DX010 (ip), vehicle: saline): 122 % of control and 100 % of control
T/C (dose: 500.0 mg/kg/injection, schedule: Q01DX010 (ip), vehicle: saline): 105 % of control and 122 % of control

CN1CC[C@]23c4c5ccc(O)c4O[C@H]2C(=O)CC[C@H]3[C@H]1C5
T/C (dose: 0.5 mg/kg/injection, schedule: Q01DX010 (ip), vehicle: saline): 106 % of control
T/C (dose: 1.0 mg/kg/injection, schedule: Q01DX010 (ip), vehicle: saline): 118 % of control
T/C (dose: 2.0 mg/kg/injection, schedule: Q01DX010 (ip), vehicle: saline): 106 % of control
T/C (dose: 4.0 mg/kg/injection, schedule: Q01DX010 (ip), vehicle: saline): 100 % of control

CS(=O)(=O)OCC(O)C(O)COS(C)(=O)=O (stereo not drawn)
T/C (dose: 94.0 mg/kg/injection, schedule: Q01DX Z (ip), vehicle: saline): 111 % of control
T/C (dose: 100.0 mg/kg/injection, schedule: Q01DX010 (ip), vehicle: saline): 105 % of control
T/C (dose: 187.5 mg/kg/injection, schedule: Q01DX Z (ip), vehicle: saline): 105 % of control
T/C (dose: 200.0 mg/kg/injection, schedule: Q01DX010 (ip), vehicle: saline): 94 % of control
T/C (dose: 375.0 mg/kg/injection, schedule: Q01DX Z (ip), vehicle: saline): 117 % of control
T/C (dose: 750.0 mg/kg/injection, schedule: Q01DX Z (ip), vehicle: saline): 111 % of control
T/C (dose: 800.0 mg/kg/injection, schedule: Q01DX010 (ip), vehicle: saline): 105 % of control

O=C(Nc1ccc(C2=NCCN2)cc1)c1cccc(C(=O)Nc2ccc(C3=NCCN3)cc2)c1
T/C (dose: 2.4 mg/kg/injection, schedule: Q01DX Z (ip), vehicle: carboxymethylcellulose (CMC)): 101 % of control
T/C (dose: 4.7 mg/kg/injection, schedule: Q01DX Z (ip), vehicle: carboxymethylcellulose (CMC)): 92 % of control
T/C (dose: 9.4 mg/kg/injection, schedule: Q01DX Z (ip), vehicle: carboxymethylcellulose (CMC)): 105 % of control
T/C (dose: 16.0 mg/kg/injection, schedule: Q01DX010 (ip), vehicle: saline): 211 % of control and 262 % of control
T/C (dose: 18.8 mg/kg/injection, schedule: Q01DX Z (ip), vehicle: carboxymethylcellulose (CMC)): 161 % of control
T/C (dose: 32.0 mg/kg/injection, schedule: Q01DX010 (ip), vehicle: saline): 255 % of control and 375 % of control
T/C (dose: 37.5 mg/kg/injection, schedule: Q01DX Z (ip), vehicle: carboxymethylcellulose (CMC)): 230 % of control
T/C (dose: 64.0 mg/kg/injection, schedule: Q01DX010 (ip), vehicle: saline): 333 % of control and 375 % of control
T/C (dose: 75.0 mg/kg/injection, schedule: Q01DX Z (ip), vehicle: carboxymethylcellulose (CMC)): 112 % of control
T/C (dose: 128.0 mg/kg/injection, schedule: Q01DX010 (ip), vehicle: saline): 268 % of control and 333 % of control

CS(=O)(=O)OCCCl
T/C (dose: 3.1 mg/kg/injection, schedule: Q01DX Z (ip), vehicle: carboxymethylcellulose (CMC)): 88 % of control
T/C (dose: 6.25 mg/kg/injection, schedule: Q01DX Z (ip), vehicle: carboxymethylcellulose (CMC)): 89 % of control
T/C [5]: 86 % of control and 89 % of control
T/C (dose: 18.8 mg/kg/injection, schedule: Q01DX010 (ip), vehicle: saline): 88 % of control and 95 % of control
T/C (dose: 37.5 mg/kg/injection, schedule: Q01DX010 (ip), vehicle: saline): 90 % of control and 94 % of control
T/C (dose: 75.0 mg/kg/injection, schedule: Q01DX010 (ip), vehicle: saline): 90 % of control and 100 % of control
T/C (dose: 150.0 mg/kg/injection, schedule: Q01DX010 (ip), vehicle: saline): 105 % of control and 90 % of control

Cn1cnc([N+](=O)[O-])c1Sc1ncnc2nc[nH]c12
T/C [5]: 104 % of control
T/C [6]: 112 % of control
T/C [7]: 114 % of control
T/C [8]: 98 % of control

O=C(Nc1ccc(C2=NCCCN2)cc1)c1ccc(C(=O)Nc2ccc(C3=NCCCN3)cc2)cc1
T/C (dose: 0.2 mg/kg/injection, schedule: Q01DX Z (ip), vehicle: water): 100 % of control
T/C (dose: 0.4 mg/kg/injection, schedule: Q01DX Z (ip), vehicle: water): 109 % of control
T/C (dose: 0.5 mg/kg/injection, schedule: Q01DX010 (ip), vehicle: other): 116 % of control and 120 % of control
T/C (dose: 1.0 mg/kg/injection, schedule: Q01DX010 (ip), vehicle: other): 150 % of control
T/C (dose: 1.6 mg/kg/injection, schedule: Q01DX Z (ip), vehicle: water): 177 % of control
T/C (dose: 2.0 mg/kg/injection, schedule: Q01DX010 (ip), vehicle: other): 192 % of control and 216 % of control
T/C (dose: 3.1 mg/kg/injection, schedule: Q01DX Z (ip), vehicle: water): 273 % of control
T/C (dose: 4.0 mg/kg/injection, schedule: Q01DX010 (ip), vehicle: other): 164 % of control and 212 % of control
T/C (dose: 8.0 mg/kg/injection, schedule: Q01DX010 (ip), vehicle: other): 91 % of control
